Measured values taken from publication PMC10643130, “Molecular basis for selective uptake and elimination of organic anions in the kidney by OAT1” (Nature Structural & Molecular Biology, 2023).
Values joined by “and” are separate entries in the source; they are usually repeats but may differ in a detail not shown here. Equal values may be shown once. Read-outs that look alike come from different tables or passages of the source. Each block holds one molecule with its values, some of them ahead of it.

What was measured:
[1] = target: T1, wild-type human OAT1 (HsOAT1) (Homo sapiens, UniProt Q4U2R8); assay: Cell-based 6-CF transport assay, wild-type HsOAT1 in HeLa cells
T1 sequence (Q4U2R8 1-563): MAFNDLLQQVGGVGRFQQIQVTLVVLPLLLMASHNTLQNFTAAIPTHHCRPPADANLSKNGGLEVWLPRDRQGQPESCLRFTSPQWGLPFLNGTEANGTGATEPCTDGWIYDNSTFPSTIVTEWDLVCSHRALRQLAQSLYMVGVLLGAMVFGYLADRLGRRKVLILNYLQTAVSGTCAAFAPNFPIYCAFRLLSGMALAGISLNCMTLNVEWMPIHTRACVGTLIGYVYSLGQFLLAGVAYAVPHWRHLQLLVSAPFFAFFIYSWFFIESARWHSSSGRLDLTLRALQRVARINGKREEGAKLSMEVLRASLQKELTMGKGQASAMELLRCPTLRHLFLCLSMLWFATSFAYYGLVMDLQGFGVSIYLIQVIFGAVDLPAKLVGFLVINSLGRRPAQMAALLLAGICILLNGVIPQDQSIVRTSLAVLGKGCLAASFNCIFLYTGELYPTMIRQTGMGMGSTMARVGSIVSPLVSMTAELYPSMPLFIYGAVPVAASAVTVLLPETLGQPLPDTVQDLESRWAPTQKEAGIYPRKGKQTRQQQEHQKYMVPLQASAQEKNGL
Experimental: (§1) To assay HsOAT1 transporter activity the model substrate 6-carboxyfluorescein (6-CF)[46],[47]
(§2) For transport assays, 1 × 10^5 cells per well were seeded into 24-well plates and 24 h later transfected using FUGENE HD (Promega E2311) Transfection Reagent (0.4 μg DNA per 1 μl of FUGENE per well) with HsOAT1 constructs containing a C-terminal FLAG tag in the vector pCDNA3.1 for 36 h. Expression of each mutant of HsOAT1 was assessed through western blotting on membrane fractions using an anti-FLAG antibody 1:3,000 dilution (Merck F1804), using a loading control of anti-β-actin 1:5,000 dilution (Merck A2228) (Extended Data Fig. 4). […] Background fluorescence was subtracted from cells transfected with the empty plasmid, and the data were normalized to 100%. To assess the activity of HsOAT1 in the presence and absence of chloride, the buffer was 120 mM NaCl, 28 mM glucose and 25 mM HEPES, pH 7.2 or for chloride-free conditions, and 120 mM sodium gluconate was used. […] To study the effect of ligands or inhibitors, the compound of interest was added to the assay buffer at the desired concentration. […] Each concentration was repeated three times to calculate standard errors, and the whole experiment was repeated three times to calculate the mean IC50 and standard error.

[2] = target: T2, OAT1 Ser350Ala (S350A) mutant, human (Homo sapiens, UniProt Q4U2R8, S350A); assay: Cell-based 6-CF transport assay, HsOAT1 Ser350Ala mutant; settings: pH 7.2, probe 6-carboxyfluorescein (6-CF), 10 μM 6-CF, HeLa cells, mean ± s.d.
T2 sequence (Q4U2R8 1-563 S350A): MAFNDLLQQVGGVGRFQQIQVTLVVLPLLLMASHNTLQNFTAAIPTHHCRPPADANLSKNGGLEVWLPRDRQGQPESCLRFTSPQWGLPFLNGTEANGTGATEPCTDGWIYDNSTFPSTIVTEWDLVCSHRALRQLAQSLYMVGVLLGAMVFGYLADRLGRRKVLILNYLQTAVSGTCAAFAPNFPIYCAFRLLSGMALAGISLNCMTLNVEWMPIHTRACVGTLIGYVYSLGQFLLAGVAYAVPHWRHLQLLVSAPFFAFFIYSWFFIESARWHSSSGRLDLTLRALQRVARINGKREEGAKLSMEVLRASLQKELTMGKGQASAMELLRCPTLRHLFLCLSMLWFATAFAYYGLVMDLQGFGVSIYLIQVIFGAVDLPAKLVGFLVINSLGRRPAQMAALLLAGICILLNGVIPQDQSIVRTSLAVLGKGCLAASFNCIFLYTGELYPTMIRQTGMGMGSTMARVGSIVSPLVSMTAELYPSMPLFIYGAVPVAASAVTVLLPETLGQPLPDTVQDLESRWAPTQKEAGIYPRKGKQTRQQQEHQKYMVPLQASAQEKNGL

[3] = target: T1, wild-type human OAT1 (HsOAT1); assay: cell-based
Experimental: as §1, §2

[4] = target: T3, human OAT1 Gly227Ala (G227A) (Homo sapiens, UniProt Q4U2R8, G227A); assay: cell-based
T3 sequence (Q4U2R8 1-563 G227A): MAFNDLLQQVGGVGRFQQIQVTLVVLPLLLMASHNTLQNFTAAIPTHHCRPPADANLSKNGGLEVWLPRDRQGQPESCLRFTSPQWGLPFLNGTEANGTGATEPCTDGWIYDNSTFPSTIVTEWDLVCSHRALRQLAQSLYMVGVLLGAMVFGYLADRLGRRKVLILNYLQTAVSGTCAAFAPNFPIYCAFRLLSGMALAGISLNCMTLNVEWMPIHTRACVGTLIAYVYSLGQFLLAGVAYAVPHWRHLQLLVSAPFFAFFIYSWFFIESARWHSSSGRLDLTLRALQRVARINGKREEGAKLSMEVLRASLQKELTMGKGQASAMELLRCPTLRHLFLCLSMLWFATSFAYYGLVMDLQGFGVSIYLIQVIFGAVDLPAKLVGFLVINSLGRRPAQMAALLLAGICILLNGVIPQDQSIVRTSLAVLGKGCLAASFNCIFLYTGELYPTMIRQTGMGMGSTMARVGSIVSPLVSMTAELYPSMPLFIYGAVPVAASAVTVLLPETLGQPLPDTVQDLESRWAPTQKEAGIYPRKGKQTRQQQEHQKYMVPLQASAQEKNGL

[5] = target: T4, human OAT1 Tyr230Phe (Y230F) (Homo sapiens, UniProt Q4U2R8, Y230F); assay: Cell-based 6-CF transport assay, HsOAT1 Tyr230Phe mutant; settings: 8 min
T4 sequence (Q4U2R8 1-563 Y230F): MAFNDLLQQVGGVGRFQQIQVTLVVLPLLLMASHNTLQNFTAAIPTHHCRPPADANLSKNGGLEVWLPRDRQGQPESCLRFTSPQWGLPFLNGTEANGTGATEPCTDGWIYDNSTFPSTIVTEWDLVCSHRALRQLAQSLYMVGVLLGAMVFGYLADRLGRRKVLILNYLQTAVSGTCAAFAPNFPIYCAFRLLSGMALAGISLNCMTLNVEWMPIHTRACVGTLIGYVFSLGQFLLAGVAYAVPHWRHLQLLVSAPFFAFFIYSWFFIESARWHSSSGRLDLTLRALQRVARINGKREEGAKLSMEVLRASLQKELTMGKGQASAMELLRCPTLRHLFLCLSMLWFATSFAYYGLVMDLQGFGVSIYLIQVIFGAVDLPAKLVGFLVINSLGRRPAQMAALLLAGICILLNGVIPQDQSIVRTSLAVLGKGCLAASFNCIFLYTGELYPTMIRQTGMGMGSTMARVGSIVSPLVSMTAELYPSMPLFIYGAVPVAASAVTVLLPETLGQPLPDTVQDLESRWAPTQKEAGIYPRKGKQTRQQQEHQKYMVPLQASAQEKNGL

[6] = target: T5, HsOAT1 truncation (lacks last 10 amino acids) (Homo sapiens, UniProt Q4U2R8); assay: Cell-based 6-CF transport assay, truncated HsOAT1 lacking the last 10 amino acids; settings: Truncation (+P), 0.1 mM pemetrexed
T5 construct: expressed in transfected cells; host or cells: HeLa
T5 sequence (Q4U2R8 1-552 limits assumed): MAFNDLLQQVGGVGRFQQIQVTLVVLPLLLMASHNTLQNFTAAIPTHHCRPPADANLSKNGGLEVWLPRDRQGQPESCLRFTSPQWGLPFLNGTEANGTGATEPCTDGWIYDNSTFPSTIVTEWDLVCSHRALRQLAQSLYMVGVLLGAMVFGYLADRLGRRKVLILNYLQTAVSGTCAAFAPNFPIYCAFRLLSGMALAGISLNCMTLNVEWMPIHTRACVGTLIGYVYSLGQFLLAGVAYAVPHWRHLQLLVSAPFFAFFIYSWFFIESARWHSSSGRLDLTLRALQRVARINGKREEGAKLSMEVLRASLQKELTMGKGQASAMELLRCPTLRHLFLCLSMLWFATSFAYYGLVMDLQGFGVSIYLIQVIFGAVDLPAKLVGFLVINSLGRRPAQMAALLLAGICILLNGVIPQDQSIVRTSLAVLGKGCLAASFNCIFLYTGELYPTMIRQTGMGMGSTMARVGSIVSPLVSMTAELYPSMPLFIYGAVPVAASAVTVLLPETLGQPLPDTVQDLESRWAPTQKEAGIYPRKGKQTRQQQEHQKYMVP

[7] = target: T6, Biotinylated RnOat1 with a C-terminal Avi-tag followed by a FLAG tag (Rattus norvegicus, UniProt O35956, biotin (on the Avi-tag, by GST-BirA)); assay: BLI; Octet Red 384; who was immobilised and the buffer are not told; n = 4 independent experiments; settings: both partners purified
T6 construct: Organic anion transporter 1 (Oat1, Slc22a6) of Rattus norvegicus; Used for the sybody selection; The host is likely Sf9 as for the structural construct (surmise); also called C-terminally Avi-Flag-tagged and biotinylated RnOat1; not shown: Avi-tag, C-terminal, kept

RnOat1 = target: T7, RnOat1 (Rattus norvegicus, UniProt O35956); assay: Sybody binding by biolayer interferometry; design: unit not given here
T7 construct: made in house; host or cells: Sf9 insect cells (baculovirus)
T7 sequence (O35956 1-551): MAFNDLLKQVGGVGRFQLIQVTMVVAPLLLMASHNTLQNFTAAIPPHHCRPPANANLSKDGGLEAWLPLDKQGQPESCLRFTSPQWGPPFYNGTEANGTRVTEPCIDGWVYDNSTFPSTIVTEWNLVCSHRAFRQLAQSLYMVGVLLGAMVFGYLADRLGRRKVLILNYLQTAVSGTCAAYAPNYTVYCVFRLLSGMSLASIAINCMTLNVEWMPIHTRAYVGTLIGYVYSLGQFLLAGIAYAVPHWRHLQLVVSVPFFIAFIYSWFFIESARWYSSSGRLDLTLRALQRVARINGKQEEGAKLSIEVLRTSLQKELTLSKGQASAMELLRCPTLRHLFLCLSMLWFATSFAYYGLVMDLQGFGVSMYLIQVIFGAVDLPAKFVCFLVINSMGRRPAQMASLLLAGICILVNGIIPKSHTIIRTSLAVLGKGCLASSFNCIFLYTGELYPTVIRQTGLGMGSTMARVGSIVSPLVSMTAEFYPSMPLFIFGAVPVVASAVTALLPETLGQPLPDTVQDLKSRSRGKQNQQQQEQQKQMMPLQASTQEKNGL
Experimental: Sybody selection was performed against C-terminally Avi-Flag-tagged and biotinylated RnOat1 using methods described previously in ref. [48]. A high-affinity sybody with a slow off rate, as measured using biolayer interferometry (Octet Red 384), was identified from the concave library. The sybody was cloned and expressed as a C-terminally MycHis tagged construct from the pSB-init vector (Addgene no. 110100), (pSB_Syb25 Addgene no. 197992).

[8] = 8 min, read-out: 6-CF uptake, Mean

- inhibition of 6-CF uptake ([1]; 0.1 mM in assay buffer): fully inhibited
- substrate quality in 6-CF assay ([1]; 0.5 mM, uptake after 8 minutes, similar to literature ref 20): poor substrates
- 6-CF uptake, MEAN ([1]; WT (+P), 0.1 mM pemetrexed, 1 min): 22
- 6-CF uptake, MEAN ([1]; WT (+P), 0.1 mM pemetrexed, 5 min): 18.75
- 6-CF uptake, MEAN ([1]; WT (+P), 0.1 mM pemetrexed, 8 min): 24.75
- 6-CF uptake, MEAN ([1]; WT (+P), 0.1 mM pemetrexed, 10 min): 17.25
- 6-CF uptake in presence of substrate, single experiments ([1]; substrate 0.5 mM, uptake after 8 minutes): 71%
- 6-CF uptake, MEAN ([6]; 1 min): 19.52
- 6-CF uptake, MEAN ([6]; 5 min): 17.65
- 6-CF uptake, MEAN ([6]; 8 min): 16.52
- 6-CF uptake, MEAN ([6]; 10 min): 12.32
Molecule: Nc1nc2[nH]cc(CCc3ccc(C(=O)N[C@@H](CCC(=O)O)C(=O)O)cc3)c2c(=O)[nH]1 [pemetrexed]

- Kd [7]: 0.075 µM
- binding response (ED Fig 3e source data) (RnOat1; Conc. 7.81 nM): 0.004
- binding response (ED Fig 3e source data) (RnOat1; Conc. 15.625 nM): 0.0165
- binding response (ED Fig 3e source data) (RnOat1; Conc. 31.25 nM): 0.04633
- binding response (ED Fig 3e source data) (RnOat1; Conc. 62.5 nM): 0.1353
- binding response (ED Fig 3e source data) (RnOat1; Conc. 250 nM): 0.201
- binding response (ED Fig 3e source data) (RnOat1; Conc. 500 nM): 0.2162
- binding response (ED Fig 3e source data) (RnOat1; Conc. 1000 nM): 0.2225
- binding response (ED Fig 3e source data) (RnOat1; Conc. 2000 nM): 0.23
B1: Sybody (synthetic nanobody) against RnOat1, Syb25 (VHH)
VHH: QVQLVESGGGLVQAGGSLRLSCAASGFPVKTEWMEWYRQAPGKEREWVAAIWSYGSGTRYADSVKGRFTISRDNAKNTVYLQMNSLKPEDTAVYYCLVRVGSWYHGQGTQVTVSA
notes: selected from the concave sybody library; source: expressed from the pSB-init vector

Continued, molecule first:

Molecule: O=C(O)CCC(=O)O [succinate]
- 6-CF transport in presence of dicarboxylate, single experiments ([1]; dicarboxylate 0.5 mM, 8 minutes, n = 8): 62.6553% and 71.4816% and 66.0745% and 69.225% and 69.843% and 74.8162% and 55.8733% and 76.8934%

Molecule: C[C@H](Cn1cnc2c(N)ncnc21)OCP(=O)(O)O [tenofovir]
- IC50 at 8 min [2]: 241 ± 11 µM
- IC50 [3]: 120 ± 19 µM
- remaining activity at 1 µM [4, 8]: 99.8%
- remaining activity at 2 µM [4, 8]: 82.7%
- remaining activity at 2.30103 µM [4, 8]: 69.5%
- remaining activity at 2.60206 µM [4, 8]: 40.3%
- remaining activity at 3 µM [4, 8]: 31.2%
- remaining activity at 3.17609 µM [4, 8]: 15.6%
- effect of Gly227Ala mutant on tenofovir recognition ([4]; versus wild type, Fig. 2f): no discernible effect
- 6-CF uptake, MEAN [1]: 99%
- 6-CF uptake, MEAN ([1]; WT Tenofovir, uM column 2): 79%
- 6-CF uptake, MEAN ([1]; WT Tenofovir, uM column 2.30103): 65%
- 6-CF uptake, MEAN ([1]; WT Tenofovir, uM column 2.60206): 35%
- 6-CF uptake, MEAN ([1]; WT Tenofovir, uM column 3): 24%
- 6-CF uptake, MEAN ([1]; WT Tenofovir, uM column 3.17609): 12%
- remaining activity at 1 µM ([5]; read-out: 6-CF uptake, Mean): 99%
- remaining activity at 2 µM ([5]; read-out: 6-CF uptake, Mean): 95.2%
- remaining activity at 2.30103 µM ([5]; read-out: 6-CF uptake, Mean): 87%
- remaining activity at 2.60206 µM ([5]; read-out: 6-CF uptake, Mean): 68.5%
- remaining activity at 3 µM ([5]; read-out: 6-CF uptake, Mean): 52.3%
- remaining activity at 3.17609 µM ([5]; read-out: 6-CF uptake, Mean): 35%
- IC50 ([5]; Tyr230Phe, 10 μM 6-CF, HeLa cells, mean ± s.d.): 450 ± 26 µM
